From ChEMBL document CHEMBL1127286, “Quantitative structure-activity relationships study of endothelin-1 analogs” (Bioorg Med Chem Lett, 1994)

How the values were obtained:
[1] = molecular target: T1, Endothelin-1 receptor (Rattus norvegicus) (UniProt P26684); test: Concentration required to produce 50% inhibition of binding against ET A receptor obtained from rat thoracic aortic membrane
T1 sequence (whole entry): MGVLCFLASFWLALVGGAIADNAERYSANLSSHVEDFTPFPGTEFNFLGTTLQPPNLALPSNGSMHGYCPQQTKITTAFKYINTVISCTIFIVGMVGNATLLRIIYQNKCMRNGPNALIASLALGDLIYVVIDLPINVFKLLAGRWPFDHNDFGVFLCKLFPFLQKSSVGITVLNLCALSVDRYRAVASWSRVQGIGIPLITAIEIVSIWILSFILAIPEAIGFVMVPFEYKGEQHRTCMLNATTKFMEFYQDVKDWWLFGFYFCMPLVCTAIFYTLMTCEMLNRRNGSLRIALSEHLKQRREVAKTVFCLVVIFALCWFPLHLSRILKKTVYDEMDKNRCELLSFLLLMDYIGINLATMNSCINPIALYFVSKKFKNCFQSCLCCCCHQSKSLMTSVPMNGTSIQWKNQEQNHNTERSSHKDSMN

[2] = molecular target: T2, Endothelin receptor type B (Rattus norvegicus) (UniProt P21451); test: Concentration required to produce 50% inhibition of binding against ET B receptor obtained from rat brain membrane
T2 sequence (whole entry): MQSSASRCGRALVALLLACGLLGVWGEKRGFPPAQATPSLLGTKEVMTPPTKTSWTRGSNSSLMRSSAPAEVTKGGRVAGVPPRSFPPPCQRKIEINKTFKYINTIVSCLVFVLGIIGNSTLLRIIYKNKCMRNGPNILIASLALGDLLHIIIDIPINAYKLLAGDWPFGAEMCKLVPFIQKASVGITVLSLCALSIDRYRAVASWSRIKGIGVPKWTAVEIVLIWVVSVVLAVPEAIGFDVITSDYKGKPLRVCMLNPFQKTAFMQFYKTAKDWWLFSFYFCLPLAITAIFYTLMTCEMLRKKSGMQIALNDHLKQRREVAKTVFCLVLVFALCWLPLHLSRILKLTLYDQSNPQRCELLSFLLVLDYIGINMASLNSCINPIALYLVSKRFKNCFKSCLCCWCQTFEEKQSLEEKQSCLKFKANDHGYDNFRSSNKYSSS

CC[C@@H](C)[C@H](NC(=O)[C@H](CC(=O)O)NC(=O)[C@H](CC(C)C)NC(=O)[C@H](Cc1c[nH]cn1)NC(=O)[C@H](CS)NC(=O)[C@H](Cc1ccccc1)NC(=O)[C@H](Cc1ccc(O)cc1)NC(=O)[C@@H](NC(=O)[C@H](CS)NC(=O)[C@H](CCC(=O)O)NC(=O)[C@H](CCCCN)NC(=O)[C@H](CC(=O)O)NC(=O)[C@H](CCSC)NC(=O)[C@H](CC(C)C)NC(=O)[C@H](CO)NC(=O)[C@H](CO)NC(=O)[C@H](CS)NC(=O)[C@H](CO)NC(=O)[C@@H](N)CS)C(C)C)C(=O)N[C@H](CCC(N)=O)C(=O)N[C@@H](Cc1c[nH]c2ccccc12)C(=O)O
pIC50 [1]: 5.27 | pIC50 [2]: 5.59

CC[C@@H](C)[C@H](NC(=O)[C@H](CC(=O)O)NC(=O)[C@H](CC(C)C)NC(=O)[C@H](Cc1c[nH]cn1)NC(=O)[C@H](CS)NC(=O)[C@H](Cc1ccccc1)NC(=O)[C@H](Cc1ccc(O)cc1)NC(=O)[C@@H](NC(=O)[C@H](CS)NC(=O)[C@H](CCC(=O)O)NC(=O)[C@H](CCCCN)NC(=O)[C@H](CC(=O)O)NC(=O)[C@H](CCSC)NC(=O)[C@H](CC(C)C)NC(=O)[C@H](CO)NC(=O)[C@H](CO)NC(=O)[C@H](CS)NC(=O)[C@H](CO)NC(=O)[C@@H](N)CS)C(C)C)C(=O)N[C@@H](C(=O)N[C@@H](Cc1c[nH]c2ccccc12)C(=O)O)C(C)C
pIC50 [1]: 9 | pIC50 [2]: 9.05

CC[C@@H](C)[C@H](NC(=O)[C@H](CC(=O)O)NC(=O)[C@H](CC(C)C)NC(=O)[C@H](Cc1c[nH]cn1)NC(=O)[C@H](CS)NC(=O)[C@H](Cc1ccccc1)NC(=O)[C@H](Cc1ccc(O)cc1)NC(=O)[C@@H](NC(=O)[C@H](CS)NC(=O)[C@H](CCC(=O)O)NC(=O)[C@H](CCCCN)NC(=O)[C@H](CC(=O)O)NC(=O)[C@H](CCSC)NC(=O)[C@H](CC(C)C)NC(=O)[C@H](CO)NC(=O)[C@H](CO)NC(=O)[C@H](CS)NC(=O)[C@H](CO)NC(=O)[C@@H](N)CS)C(C)C)C(=O)N[C@H](C(=O)N[C@@H](Cc1c[nH]c2ccccc12)C(=O)O)c1ccccc1
pIC50 [1]: 8.89 | pIC50 [2]: 9.76

CC[C@@H](C)[C@H](NC(=O)[C@H](CC(=O)O)NC(=O)[C@H](CC(C)C)NC(=O)[C@H](Cc1c[nH]cn1)NC(=O)[C@H](CS)NC(=O)[C@H](Cc1ccccc1)NC(=O)[C@H](Cc1ccc(O)cc1)NC(=O)[C@@H](NC(=O)[C@H](CS)NC(=O)[C@H](CCC(=O)O)NC(=O)[C@H](CCCCN)NC(=O)[C@H](CC(=O)O)NC(=O)[C@H](CCSC)NC(=O)[C@H](CC(C)C)NC(=O)[C@H](CO)NC(=O)[C@H](CO)NC(=O)[C@H](CS)NC(=O)[C@H](CO)NC(=O)[C@@H](N)CS)C(C)C)C(=O)N[C@H](C)C(=O)N[C@@H](Cc1c[nH]c2ccccc12)C(=O)O
pIC50 [1]: 5.77 | pIC50 [2]: 7.96

CC[C@@H](C)[C@H](NC(=O)[C@H](CC(=O)O)NC(=O)[C@H](CC(C)C)NC(=O)[C@H](Cc1c[nH]cn1)NC(=O)[C@H](CS)NC(=O)[C@H](Cc1ccccc1)NC(=O)[C@H](Cc1ccc(O)cc1)NC(=O)[C@@H](NC(=O)[C@H](CS)NC(=O)[C@H](CCC(=O)O)NC(=O)[C@H](CCCCN)NC(=O)[C@H](CC(=O)O)NC(=O)[C@H](CCSC)NC(=O)[C@H](CC(C)C)NC(=O)[C@H](CO)NC(=O)[C@H](CO)NC(=O)[C@H](CS)NC(=O)[C@H](CO)NC(=O)[C@@H](N)CS)C(C)C)C(=O)N[C@H](Cc1ccccc1)C(=O)N[C@@H](Cc1c[nH]c2ccccc12)C(=O)O
pIC50 [1]: 6.07 | pIC50 [2]: 8.6

CC[C@@H](C)[C@H](NC(=O)[C@H](CC(=O)O)NC(=O)[C@H](CC(C)C)NC(=O)[C@H](Cc1c[nH]cn1)NC(=O)[C@H](CS)NC(=O)[C@H](Cc1ccccc1)NC(=O)[C@H](Cc1ccc(O)cc1)NC(=O)[C@@H](NC(=O)[C@H](CS)NC(=O)[C@H](CCC(=O)O)NC(=O)[C@H](CCCCN)NC(=O)[C@H](CC(=O)O)NC(=O)[C@H](CCSC)NC(=O)[C@H](CC(C)C)NC(=O)[C@H](CO)NC(=O)[C@H](CO)NC(=O)[C@H](CS)NC(=O)[C@H](CO)NC(=O)[C@@H](N)CS)C(C)C)C(=O)N[C@H](C(=O)N[C@@H](Cc1c[nH]c2ccccc12)C(=O)O)C1CCCCC1
pIC50 [1]: 9.88 | pIC50 [2]: 10

CCC[C@@H](NC(=O)[C@@H](NC(=O)[C@H](CC(=O)O)NC(=O)[C@H](CC(C)C)NC(=O)[C@H](Cc1c[nH]cn1)NC(=O)[C@H](CS)NC(=O)[C@H](Cc1ccccc1)NC(=O)[C@H](Cc1ccc(O)cc1)NC(=O)[C@@H](NC(=O)[C@H](CS)NC(=O)[C@H](CCC(=O)O)NC(=O)[C@H](CCCCN)NC(=O)[C@H](CC(=O)O)NC(=O)[C@H](CCSC)NC(=O)[C@H](CC(C)C)NC(=O)[C@H](CO)NC(=O)[C@H](CO)NC(=O)[C@H](CS)NC(=O)[C@H](CO)NC(=O)[C@@H](N)CS)C(C)C)[C@H](C)CC)C(=O)N[C@@H](Cc1c[nH]c2ccccc12)C(=O)O
pIC50 [1]: 7.6 | pIC50 [2]: 10

CC[C@@H](C)[C@H](NC(=O)[C@H](CC(=O)O)NC(=O)[C@H](CC(C)C)NC(=O)[C@H](Cc1c[nH]cn1)NC(=O)[C@H](CS)NC(=O)[C@H](Cc1ccccc1)NC(=O)[C@H](Cc1ccc(O)cc1)NC(=O)[C@@H](NC(=O)[C@H](CS)NC(=O)[C@H](CCC(=O)O)NC(=O)[C@H](CCCCN)NC(=O)[C@H](CC(=O)O)NC(=O)[C@H](CCSC)NC(=O)[C@H](CC(C)C)NC(=O)[C@H](CO)NC(=O)[C@H](CO)NC(=O)[C@H](CS)NC(=O)[C@H](CO)NC(=O)[C@@H](N)CS)C(C)C)C(=O)N[C@H](Cc1c[nH]cn1)C(=O)N[C@@H](Cc1c[nH]c2ccccc12)C(=O)O
pIC50 [1]: 6.13 | pIC50 [2]: 7.55

CC[C@@H](C)[C@H](NC(=O)[C@H](CC(=O)O)NC(=O)[C@H](CC(C)C)NC(=O)[C@H](Cc1c[nH]cn1)NC(=O)[C@H](CS)NC(=O)[C@H](Cc1ccccc1)NC(=O)[C@H](Cc1ccc(O)cc1)NC(=O)[C@@H](NC(=O)[C@H](CS)NC(=O)[C@H](CCC(=O)O)NC(=O)[C@H](CCCCN)NC(=O)[C@H](CC(=O)O)NC(=O)[C@H](CCSC)NC(=O)[C@H](CC(C)C)NC(=O)[C@H](CO)NC(=O)[C@H](CO)NC(=O)[C@H](CS)NC(=O)[C@H](CO)NC(=O)[C@@H](N)CS)C(C)C)C(=O)N[C@H](CC(C)C)C(=O)N[C@@H](Cc1c[nH]c2ccccc12)C(=O)O
pIC50 [1]: 7.97 | pIC50 [2]: 9.94

CC[C@@H](C)[C@H](NC(=O)[C@H](CC(=O)O)NC(=O)[C@H](CC(C)C)NC(=O)[C@H](Cc1c[nH]cn1)NC(=O)[C@H](CS)NC(=O)[C@H](Cc1ccccc1)NC(=O)[C@H](Cc1ccc(O)cc1)NC(=O)[C@@H](NC(=O)[C@H](CS)NC(=O)[C@H](CCC(=O)O)NC(=O)[C@H](CCCCN)NC(=O)[C@H](CC(=O)O)NC(=O)[C@H](CCSC)NC(=O)[C@H](CC(C)C)NC(=O)[C@H](CO)NC(=O)[C@H](CO)NC(=O)[C@H](CS)NC(=O)[C@H](CO)NC(=O)[C@@H](N)CS)C(C)C)C(=O)N[C@@H](Cc1c[nH]c2ccccc12)C(=O)N[C@@H](Cc1c[nH]c2ccccc12)C(=O)O
pIC50 [1]: 6.71 | pIC50 [2]: 9.77

CC[C@@H](C)[C@H](NC(=O)[C@H](CC(=O)O)NC(=O)[C@H](CC(C)C)NC(=O)[C@H](Cc1c[nH]cn1)NC(=O)[C@H](CS)NC(=O)[C@H](Cc1ccccc1)NC(=O)[C@H](Cc1ccc(O)cc1)NC(=O)[C@@H](NC(=O)[C@H](CS)NC(=O)[C@H](CCC(=O)O)NC(=O)[C@H](CCCCN)NC(=O)[C@H](CC(=O)O)NC(=O)[C@H](CCSC)NC(=O)[C@H](CC(C)C)NC(=O)[C@H](CO)NC(=O)[C@H](CO)NC(=O)[C@H](CS)NC(=O)[C@H](CO)NC(=O)[C@@H](N)CS)C(C)C)C(=O)N[C@@H](C(=O)N[C@@H](Cc1c[nH]c2ccccc12)C(=O)O)C1CCCCC1
pIC50 [1]: 7.04 | pIC50 [2]: 9.59

CC[C@@H](C)[C@H](NC(=O)[C@H](CC(=O)O)NC(=O)[C@H](CC(C)C)NC(=O)[C@H](Cc1c[nH]cn1)NC(=O)[C@H](CS)NC(=O)[C@H](Cc1ccccc1)NC(=O)[C@H](Cc1ccc(O)cc1)NC(=O)[C@@H](NC(=O)[C@H](CS)NC(=O)[C@H](CCC(=O)O)NC(=O)[C@H](CCCCN)NC(=O)[C@H](CC(=O)O)NC(=O)[C@H](CCSC)NC(=O)[C@H](CC(C)C)NC(=O)[C@H](CO)NC(=O)[C@H](CO)NC(=O)[C@H](CS)NC(=O)[C@H](CO)NC(=O)[C@@H](N)CS)C(C)C)C(=O)N[C@H](C(=O)N[C@@H](Cc1c[nH]c2ccccc12)C(=O)O)[C@H](C)CC
pIC50 [1]: 9.93

CC[C@@H](C)[C@H](NC(=O)[C@H](CC(=O)O)NC(=O)[C@H](CC(C)C)NC(=O)[C@H](Cc1c[nH]cn1)NC(=O)[C@H](CS)NC(=O)[C@H](Cc1ccccc1)NC(=O)[C@H](Cc1ccc(O)cc1)NC(=O)[C@@H](NC(=O)[C@H](CS)NC(=O)[C@H](CCC(=O)O)NC(=O)[C@H](CCCCN)NC(=O)[C@H](CC(=O)O)NC(=O)[C@H](CCSC)NC(=O)[C@H](CC(C)C)NC(=O)[C@H](CO)NC(=O)[C@H](CO)NC(=O)[C@H](CS)NC(=O)[C@H](CO)NC(=O)[C@@H](N)CS)C(C)C)C(=O)N[C@@H](C(=O)N[C@@H](Cc1c[nH]c2ccccc12)C(=O)O)[C@H](C)CC
pIC50 [1]: 7.59
